Reference: ChEMBL document CHEMBL1201862, “PubChem BioAssay data set” (2004)
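Grown in 96-well plates, cells were treated for 48 hours with each compound at five concentrations. Insufficient inhibition: endpoint recorded as highest concentration tested. Abbreviation: GI50, concentration required for 50% inhibition of growth.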 Active and inactive are the calls of the source. Cut-off read from the data, not from the text of the source: active = GI50 up to about 1.1 µM and inactive = higher.

Key:
Test in all cases: DTP human tumour cell line panel, 48 h
NCI/ADR-RES = system: NCI/ADR-RES
A549 = system: A549
MDA-MB-231 = system: MDA-MB-231
DU-145 = system: DU-145
RXF 393 = system: RXF 393
SK-MEL-2 = system: SK-MEL-2
HCT-15 = system: HCT-15
PC-3 = system: PC-3
MCF7 = system: MCF7
786-0 = system: 786-0
SK-MEL-5 = system: SK-MEL-5
ACHN = system: ACHN
HOP-62 = system: HOP-62
CCRF-CEM = system: CCRF-CEM
U-251 = system: U-251
T47D = system: T47D
HCT-116 = system: HCT-116
SK-OV-3 = system: SK-OV-3
MOLT-4 = system: MOLT-4
HT-29 = system: HT-29
SF-539 = system: SF-539
A498 = system: A498
SN12C = system: SN12C
SNB-75 = system: SNB-75
MDA-N = system: MDA-N
BT-549 = system: BT-549
Malme-3M = system: Malme-3M
CAKI-1 = system: CAKI-1
COLO 205 = system: COLO 205
HL-60 = system: HL-60
SF-268 = system: SF-268
NCI-H522 = system: NCI-H522
HOP-92 = system: HOP-92
RPMI-8226 = system: RPMI-8226
SR = system: SR
TK-10 = system: TK-10
M14 = system: M14
Hs-578T = system: Hs-578T
K562 = system: K562
SK-MEL-28 = system: SK-MEL-28
UACC-257 = system: UACC-257
KM12 = system: KM12
UACC-62 = system: UACC-62
NCI-H23 = system: NCI-H23
SNB-19 = system: SNB-19
IGROV-1 = system: IGROV-1
SW-620 = system: SW-620
MDA-MB-435 = system: MDA-MB-435
UO-31 = system: UO-31
OVCAR-3 = system: OVCAR-3
NCI-H460 = system: NCI-H460
OVCAR-8 = system: OVCAR-8
LOX IMVI = system: LOX IMVI
OVCAR-4 = system: OVCAR-4
SF-295 = system: SF-295
NCI-H226 = system: NCI-H226
EKVX = system: EKVX
HCC 2998 = system: HCC 2998

Structure (SMILES): CN(C)c1ccc(/C=C/c2ccnc3ccc4ccccc4c23)cc1
- GI50 (NCI/ADR-RES): 43.3 µM (inactive)
- GI50 (A549): 35.7 µM (inactive)
- GI50 (MDA-MB-231): 34.5 µM (inactive)
- GI50 (DU-145): 44.1 µM (inactive)
- GI50 (RXF 393): 17.7 µM (inactive)
- GI50 (SK-MEL-2): 25.6 µM (inactive)
- GI50 (HCT-15): 45.9 µM
- GI50 (PC-3): 92.5 µM (inactive)
- GI50 (MCF7): 0.0873 µM (active)
- GI50 (786-0): 39.5 µM (inactive)
- GI50 (SK-MEL-5): 71 µM (inactive)
- GI50 (ACHN): 22.8 µM (inactive)
- GI50 (HOP-62): 33.4 µM (inactive)
- GI50 (CCRF-CEM): > 100 µM (inactive)
- GI50 (U-251): 28.6 µM (inactive)
- GI50 (T47D): 16.7 µM (inactive)
- GI50 (HCT-116): 36.5 µM (inactive)
- GI50 (SK-OV-3): 27.9 µM (inactive)
- GI50 (MOLT-4): > 100 µM (inactive)
- GI50 (HT-29): 43.5 µM (inactive)
- GI50 (SF-539): 28.4 µM (inactive)
- GI50 (A498): 24.8 µM (inactive)
- GI50 (SN12C): 74.3 µM (inactive)
- GI50 (SNB-75): 26.5 µM (inactive)
- GI50 (MDA-N): 16.3 µM (inactive)
- GI50 (BT-549): 37.5 µM (inactive)
- GI50 (Malme-3M): 25.3 µM (inactive)
- GI50 (CAKI-1): 38.4 µM (inactive)
- GI50 (COLO 205): 53.1 µM (inactive)
- GI50 (HL-60): > 100 µM (inactive)
- GI50 (SF-268): 39.7 µM (inactive)
- GI50 (NCI-H522): 17.3 µM (inactive)
- GI50 (HOP-92): 73.1 µM (inactive)
- GI50 (RPMI-8226): 79.4 µM (inactive)
- GI50 (SR): 13.2 µM (inactive)
- GI50 (TK-10): 19.1 µM (inactive)
- GI50 (M14): 81.3 µM (inactive)
- GI50 (Hs-578T): 36.6 µM (inactive)
- GI50 (K562): 53 µM (inactive)
- GI50 (SK-MEL-28): 38.5 µM (inactive)
- GI50 (UACC-257): 89.5 µM (inactive)
- GI50 (KM12): 33.3 µM (inactive)
- GI50 (UACC-62): 53.1 µM (inactive)
- GI50 (NCI-H23): 52.4 µM (inactive)
- GI50 (SNB-19): 33.9 µM (inactive)
- GI50 (IGROV-1): 12.7 µM (inactive)
- GI50 (SW-620): 47 µM (inactive)
- GI50 (MDA-MB-435): 24.2 µM (inactive)
- GI50 (UO-31): 45.6 µM (inactive)
- GI50 (OVCAR-3): 51.9 µM (inactive)
- GI50 (NCI-H460): 29.6 µM (inactive)
- GI50 (OVCAR-8): 33.1 µM (inactive)
- GI50 (LOX IMVI): 43.9 µM (inactive)

Structure (SMILES): CCC1CCC2c3c([nH]c4ccccc34)C3C(=O)N(c4ccc(OC)cc4)C(=O)C3C2C1 (stereo not given)
- GI50 (OVCAR-4): 14.9 µM (inactive)
- GI50 (NCI/ADR-RES): 39.6 µM (inactive)
- GI50 (A549): 22.2 µM (inactive)
- GI50 (MDA-MB-231): 49.7 µM (inactive)
- GI50 (SF-295): 26.8 µM (inactive)
- GI50 (DU-145): > 100 µM (inactive)
- GI50 (RXF 393): > 100 µM (inactive)
- GI50 (NCI-H226): > 100 µM (inactive)
- GI50 (HCT-15): 35.1 µM
- GI50 (PC-3): > 100 µM (inactive)
- GI50 (MCF7): 36.6 µM (inactive)
- GI50 (786-0): > 100 µM (inactive)
- GI50 (SK-MEL-5): > 100 µM (inactive)
- GI50 (ACHN): 39.8 µM (inactive)
- GI50 (HOP-62): 54.6 µM (inactive)
- GI50 (CCRF-CEM): 11.1 µM (inactive)
- GI50 (U-251): 18.7 µM (inactive)
- GI50 (T47D): 16.8 µM (inactive)
- GI50 (HCT-116): 20 µM (inactive)
- GI50 (SK-OV-3): 36.4 µM (inactive)
- GI50 (MOLT-4): 16.7 µM (inactive)
- GI50 (HT-29): 42.3 µM (inactive)
- GI50 (SF-539): 34 µM (inactive)
- GI50 (SN12C): 68.9 µM (inactive)
- GI50 (SNB-75): 19.5 µM (inactive)
- GI50 (MDA-N): 55.7 µM (inactive)
- GI50 (BT-549): > 100 µM (inactive)
- GI50 (COLO 205): 74.1 µM (inactive)
- GI50 (HL-60): 28.2 µM (inactive)
- GI50 (SF-268): 52.5 µM (inactive)
- GI50 (NCI-H522): 77.6 µM (inactive)
- GI50 (RPMI-8226): 55 µM (inactive)
- GI50 (EKVX): 48.3 µM (inactive)
- GI50 (SR): 16.1 µM (inactive)
- GI50 (TK-10): 28.2 µM (inactive)
- GI50 (M14): 63 µM (inactive)
- GI50 (Hs-578T): 22.2 µM (inactive)
- GI50 (K562): 22 µM (inactive)
- GI50 (SK-MEL-28): 63.8 µM (inactive)
- GI50 (UACC-257): > 100 µM (inactive)
- GI50 (KM12): 93.5 µM (inactive)
- GI50 (UACC-62): 61.8 µM (inactive)
- GI50 (HCC 2998): 91.2 µM (inactive)
- GI50 (NCI-H23): > 100 µM (inactive)
- GI50 (SNB-19): 28.3 µM (inactive)
- GI50 (IGROV-1): 64.1 µM (inactive)
- GI50 (SW-620): 17.7 µM (inactive)
- GI50 (MDA-MB-435): 55.5 µM (inactive)
- GI50 (UO-31): > 100 µM (inactive)
- GI50 (OVCAR-3): 22.3 µM (inactive)
- GI50 (NCI-H460): 30.4 µM (inactive)
- GI50 (OVCAR-8): 27.1 µM (inactive)
